Laboratory results: the supplement of paper PMC4628005

Assays:
Details in all cases: drug exposure time: 96 h
Bortezomib = compound: CC(C)C[C@H](NC(=O)[C@H](Cc1ccccc1)NC(=O)c1cnccn1)B(O)O [Bortezomib]
Protocol: (§1)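 Same SRB 96 h IC50 screen on breast cancer cell lines (RPMI 1640 + 10% FBS, collagen I-coated 96-well plates, triplicates, 12 dilutions), for drugs with a different dose range: Bortezomib up to 2e-5 M; Sirolimus and 17-AAG up to 2e-6 M. Sirolimus values at the 2e-6 M top dose are censored.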

Sirolimus = compound: CO[C@H]1C[C@@H]2CC[C@@H](C)[C@@](O)(O2)C(=O)C(=O)N2CCCC[C@H]2C(=O)O[C@H]([C@H](C)C[C@@H]2CC[C@@H](O)[C@H](OC)C2)CC(=O)[C@H](C)/C=C(\C)[C@@H](O)[C@@H](OC)C(=O)[C@H](C)C[C@H](C)/C=C/C=C/C=C/1C [Sirolimus]
Protocol: as §1

17-AAG = compound: C=CCNC1=C2C[C@@H](C)C[C@H](OC)[C@H](O)[C@@H](C)/C=C(\C)[C@H](OC(N)=O)[C@@H](OC)/C=C\C=C(/C)C(=O)NC(=CC1=O)C2=O [17-AAG]
Protocol: as §1

Nutlin-3 = compound: COc1ccc(C2=N[C@@H](c3ccc(Cl)cc3)[C@@H](c3ccc(Cl)cc3)N2C(=O)N2CCNC(=O)C2)c(OC(C)C)c1 [Nutlin-3]
Protocol: (§2)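 Breast cancer cell lines were grown in RPMI 1640 with 10% FBS on collagen I-coated 96-well plates and treated for 96 h (from 24 h after seeding) with 12 dilutions per drug, in triplicate. Growth was read by sulforhodamine B total-protein staining (absorbance 570 nm) relative to diluent control, and IC50 was calculated. The top dose was 1e-5 M for most drugs; Bortezomib went to 2e-5 M and Sirolimus and 17-AAG to 2e-6 M[…].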

Methotrexate = compound: CN(Cc1cnc2nc(N)nc(N)c2n1)c1ccc(C(=O)N[C@@H](CCC(=O)O)C(=O)O)cc1 [Methotrexate]
Protocol: as §2

Docetaxel = compound: CC(=O)O[C@@]12CO[C@@H]1C[C@H](O)[C@@]1(C)C(=O)[C@H](O)C3=C(C)[C@@H](OC(=O)[C@H](O)[C@@H](NC(=O)OC(C)(C)C)c4ccccc4)C[C@@](O)([C@@H](OC(=O)c4ccccc4)[C@H]21)C3(C)C [Docetaxel]
Protocol: as §2

Quisinostat = compound: Cn1cc(CNCC2CCN(c3ncc(C(=O)NO)cn3)CC2)c2ccccc21 [Quisinostat]
Protocol: as §2

Sunitinib = compound: CCN(CC)CCNC(=O)c1c(C)[nH]c(/C=C2\C(=O)Nc3ccc(F)cc32)c1C [Sunitinib]
Protocol: as §2

Doxorubicin = compound: COc1cccc2c1C(=O)c1c(O)c3c(c(O)c1C2=O)C[C@@](O)(C(=O)CO)C[C@@H]3O[C@H]1C[C@H](N)[C@H](O)[C@H](C)O1 [Doxorubicin]
Protocol: as §2

5-Fluorouracil = compound: O=c1[nH]cc(F)c(=O)[nH]1 [5-Fluorouracil]
Protocol: as §2

Belinostat = compound: O=C(/C=C/c1cccc(S(=O)(=O)Nc2ccccc2)c1)NO [Belinostat]
Protocol: as §2

Vorinostat = compound: O=C(CCCCCCC(=O)Nc1ccccc1)NO [Vorinostat]
Protocol: as §2

Lapatinib = compound: CS(=O)(=O)CCNCc1ccc(-c2ccc3ncnc(Nc4ccc(OCc5cccc(F)c5)c(Cl)c4)c3c2)o1 [Lapatinib]
Protocol: as §2

Azacitidine = compound: Nc1ncn([C@@H]2O[C@H](CO)[C@@H](O)[C@H]2O)c(=O)n1 [Azacitidine]
Protocol: as §2

Dasatinib = compound: Cc1nc(Nc2ncc(C(=O)Nc3c(C)cccc3Cl)s2)cc(N2CCN(CCO)CC2)n1 [Dasatinib]
Protocol: as §2

Gefitinib = compound: COc1cc2ncnc(Nc3ccc(F)c(Cl)c3)c2cc1OCCCN1CCOCC1 [Gefitinib]
Protocol: as §2

Brivanib = compound: Cc1cc2c(F)c(Oc3ncnn4cc(OC[C@@H](C)O)c(C)c34)ccc2[nH]1 [Brivanib]
Protocol: as §2

Vandetanib = compound: COc1cc2/c(=N/c3ccc(Br)cc3F)nc[nH]c2cc1OCC1CCN(C)CC1 [Vandetanib]
Protocol: as §2

Cisplatin = compound: N.N.[Cl][Pt][Cl] [Cisplatin]
Protocol: as §2

Tamoxifen = compound: CC/C(=C(\c1ccccc1)c1ccc(OCCN(C)C)cc1)c1ccccc1 [Tamoxifen]
Protocol: as §2

Serdemetan = compound: c1ccc2c(CCNc3ccc(Nc4ccncc4)cc3)c[nH]c2c1 [Serdemetan]
Protocol: as §2

Erlotinib = compound: C#Cc1cccc(Nc2ncnc3cc(OCCOC)c(OCCOC)cc23)c1 [Erlotinib]
Protocol: as §2

MI-219 = compound: CC(C)(C)C[C@H]1N[C@@H](C(=O)NCC[C@H](O)CO)[C@H](c2cccc(Cl)c2)[C@@]12C(=O)Nc1cc(Cl)c(F)cc12 [MI-219]
Protocol: as §2

Mitoxantrone = compound: O=C1c2c(O)ccc(O)c2C(=O)c2c(NCCNCCO)ccc(NCCNCCO)c21 [Mitoxantrone]
Protocol: as §2

Sorafenib = compound: CNC(=O)c1cc(Oc2ccc(NC(=O)Nc3ccc(Cl)c(C(F)(F)F)c3)cc2)ccn1 [Sorafenib]
Protocol: as §2

Panobinostat = compound: Cc1[nH]c2ccccc2c1CCNCc1ccc(/C=C/C(=O)NO)cc1 [Panobinostat]
Protocol: as §2

Paclitaxel = compound: CC(=O)O[C@H]1C(=O)[C@@]2(C)[C@H]([C@H](OC(=O)c3ccccc3)[C@]3(O)C[C@H](OC(=O)[C@H](O)[C@@H](NC(=O)c4ccccc4)c4ccccc4)C(C)=C1C3(C)C)[C@]1(OC(C)=O)CO[C@@H]1C[C@@H]2O [Paclitaxel]
Protocol: as §2

Decitabine = compound: Nc1ncn([C@H]2C[C@H](O)[C@@H](CO)O2)c(=O)n1 [Decitabine]
Protocol: as §2

| Test System | IC50 (SRB growth assay) (Bortezomib) | IC50 (SRB growth assay) (Sirolimus) | IC50 (SRB growth assay) (17-AAG) | IC50 (SRB growth assay) (Nutlin-3) | IC50 (SRB growth assay) (Methotrexate) | IC50 (SRB growth assay) (Docetaxel) | IC50 (SRB growth assay) (Quisinostat) | IC50 (SRB growth assay) (Sunitinib) | IC50 (SRB growth assay) (Doxorubicin) | IC50 (SRB growth assay) (5-Fluorouracil) | IC50 (SRB growth assay) (Belinostat) | IC50 (SRB growth assay) (Vorinostat) | IC50 (SRB growth assay) (Lapatinib) | IC50 (SRB growth assay) (Azacitidine) | IC50 (SRB growth assay) (Dasatinib) | IC50 (SRB growth assay) (Gefitinib) | IC50 (SRB growth assay) (Brivanib) | IC50 (SRB growth assay) (Vandetanib) | IC50 (SRB growth assay) (Cisplatin) | IC50 (SRB growth assay) (Tamoxifen) | IC50 (SRB growth assay) (Serdemetan) | IC50 (SRB growth assay) (Erlotinib) | IC50 (SRB growth assay) (MI-219) | IC50 (SRB growth assay) (Mitoxantrone) | IC50 (SRB growth assay) (Sorafenib) | IC50 (SRB growth assay) (Panobinostat) | IC50 (SRB growth assay) (Paclitaxel) | IC50 (SRB growth assay) (Decitabine) |
| --- | --- | --- | --- | --- | --- | --- | --- | --- | --- | --- | --- | --- | --- | --- | --- | --- | --- | --- | --- | --- | --- | --- | --- | --- | --- | --- | --- | --- |
| SUM 1315 MO2 | 6.55 nM | 917 pM | 55.1 nM | > 10 µM | 138 nM | 1.54 nM | 29.6 nM | 4.28 µM | 17.5 nM | > 10 µM | 703 nM | 1.19 µM | 6.72 µM | 3.6 µM | 53.7 nM | > 10 µM | 7.2 µM | 2.59 µM | > 10 µM | > 10 µM | 1.19 µM | > 10 µM | > 10 µM | 2.7 nM | 5.57 µM | 31.7 nM | 3.29 nM |  |
| SUM 190 PT | 6.51 nM | 548 pM | 79.5 nM | > 10 µM | > 10000 nM | 0.883 nM | 72.4 nM | 3.87 µM |  | > 10 µM | 4610 nM | 4.73 µM | > 10 µM | > 10 µM | 223 nM | > 10 µM | > 10 µM | 4.54 µM |  | 8.04 µM | 0.871 µM | 5.25 µM | > 10 µM | 20.8 nM | 2.06 µM | 78 nM | 1.91 nM | > 10 µM |
| MDA-MB-175 VII | 8 nM | 1270 pM | 15 nM | 3.74 µM | 595 nM | 6.87 nM | 14.8 nM | > 10 µM |  | 4.18 µM | 493 nM | 0.898 µM | > 10 µM | > 10 µM | 513 nM | > 10 µM | > 10 µM | 2.45 µM |  | 7.37 µM | 4.89 µM | > 10 µM | 1.36 µM | 12.6 nM | 6.47 µM | 15.2 nM | 7.47 nM | > 10 µM |
| SUM 185 PE | 8.04 nM | 74.7 pM | 8.53 nM | > 10 µM | > 10000 nM | 2.17 nM | 5.45 nM | 1.04 µM |  | > 10 µM | 352 nM | 0.891 µM | > 10 µM | > 10 µM | > 10000 nM | > 10 µM | 4.53 µM | 2.28 µM |  | 5.38 µM | 1.14 µM | 9.48 µM | > 10 µM | 7.18 nM | 2.53 µM | 8.38 nM | 4.07 nM | > 10 µM |
